Results published in US4116963A, “3,3,3-Triarylalkyl-4-phenylalkyl-4-hydroxy piperidines and related compounds” (G.D. Searle & Co., priority 1977, dated 1978).

How the values were obtained:
mice [1] = test: CECAL (Charcoal Meal Test); format: in vivo; details: Mus musculus, po; i.g., 1 hour prior to the charcoal meal; antidiarrheal effect; read-out: Cecal Test (CT) ED50
Protocol: The antidiarrheal effect of the compounds of the present invention are shown by the following test:
CECAL (Charcoal Meal Test)
Mice weighing 18-24 grams and previously fasted for 24 hours are each given orally 0.2 ml of a suspension containing 10% charcoal and 1% methylcellulose. The test compounds are administered intragastrically 1 hour prior to the charcoal meal. 3.5 Hours after administration of the meal the mice are sacrificed by cervical dislocation and the cecum is examined for the presence or absence of charcoal on an all or none basis. Each compound is tested at three dose levels (typically 30, 10, 3 mg/kg) in groups of 6 mice per dose level. Control groups of mice given vehicle only were run concurrently with each test group.

mice [2] = test: Mouse Hot Plate Test; format: in vivo; details: for ED50: Mus musculus, printed "mg/kg k.g.", hot plate 55± 0.3° C., analgesic effect, read-out: Hot Plate (HP) ED50; for Relative Constipation Specificity HP/CT: ratio of Hot Plate ED50 to Cecal Test ED50
Protocol: The assessment of the analgesic effect of the instant compounds was conducted in the mouse hot plate and tail clip tests.
A mouse (adult male weighing 18-25 grams) is placed in a restraining cylinder on a hot plate with the temperature controlled at 55± 0.3° C. The reaction time of the mouse to lick a foot or jump is measured at 60, 40 and 20 minutes before and 30, 60, 90, and 120 minutes after administration of the test compound. The "normal" reaction time is measured as the median of the three pretreatment reaction times. A positive response consists of a reaction time greater than twice the normal time at any of the post treatment times. A dose of the test compound is considered active when 50 percent or more of the animals used show a positive response.

mice [3] = test: Tail Clip Test; format: in vivo, mouse; details: for ED50: Mus musculus, po, i.g., analgesic effect, read-out: Tail Clip (TC) ED50; for Relative Constipation Specificity TC/CT: ratio of Tail Clip ED50 to Cecal Test ED50

| SMILES | ED50 (mice [1]) [mg/kg] | ED50 (mice [2]) [mg/kg] | Relative Constipation Specificity HP/CT (mice [2]) | ED50 (mice [3]) [mg/kg] | Relative Constipation Specificity TC/CT (mice [3]) |
| --- | --- | --- | --- | --- | --- |
| OC1(c2ccccc2)CCN(CCC(c2ccccc2)(c2ccccc2)c2ccccc2)CC1 [I, 1-(3,3,3-triphenylpropyl)-4-hydroxy-4-phenylpiperidine] | 0.39 | ~3 | 7.6 | ~3 | 7.6 |
| OC1(Cc2ccccc2)CCN(CCC(c2ccccc2)(c2ccccc2)c2ccccc2)CC1 [II, 1-(3,3,3-triphenylpropyl)-4-hydroxy-4-benzylpiperidine] | 0.6 | ~400 | 667 | ~400 | 667 |
